Test results taken from PubChem BioAssay AID248 (DTP/NCI, 2004).
Values joined by “and” are separate entries in the source; they are usually repeats but may differ in a detail not shown here. Equal values may be shown once. Toxic doses and inconclusive results are not listed. Cut-off read from the data, not from the text of the source: active = T/C of 150% or more; inactive = T/C below 125%.

System: L1210 leukemia ip in BDF1 mice, survival T/C
Test: NCI In Vivo Anticancer Drug Screen. Data for tumor model L1210 Leukemia (intraperitoneal) in B6D2F1 (BDF1) mice
Details: endpoint: mean survival time, higher = longer survival
Method in brief: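 Survival endpoint. Drug-treated group vs vehicle group, expressed as T divided by C. Tumor passaged by transplantation.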

[1] = dose: 25.0 mg/kg/injection, schedule: Q01DX001 (ip), vehicle: saline
[2] = dose: 50.0 mg/kg/injection, schedule: Q01DX001 (ip), vehicle: saline
[3] = dose: 75.0 mg/kg/injection, schedule: Q01DX001 (ip), vehicle: saline
[4] = dose: 100.0 mg/kg/injection, schedule: Q04DX003 (ip), vehicle: saline with Tween-80
[5] = dose: 200.0 mg/kg/injection, schedule: Q04DX003 (ip), vehicle: saline with Tween-80
[6] = dose: 400.0 mg/kg/injection, schedule: Q04DX003 (ip), vehicle: saline with Tween-80
[7] = dose: 100.0 mg/kg/injection, schedule: Q04DX002 (ip), vehicle: saline with Tween-80
[8] = dose: 200.0 mg/kg/injection, schedule: Q04DX002 (ip), vehicle: saline with Tween-80
[9] = dose: 400.0 mg/kg/injection, schedule: Q04DX002 (ip), vehicle: saline with Tween-80
[10] = dose: 100.0 mg/kg/injection, schedule: Q01DX001 (ip), vehicle: saline
[11] = dose: 200.0 mg/kg/injection, schedule: Q01DX001 (ip), vehicle: saline
[12] = dose: 400.0 mg/kg/injection, schedule: Q01DX001 (ip), vehicle: saline
[13] = dose: 100.0 mg/kg/injection, schedule: Q01DX009 (ip), vehicle: Klucel (hydroxypropylcellulose) (HPC)
[14] = dose: 200.0 mg/kg/injection, schedule: Q01DX009 (ip), vehicle: Klucel (hydroxypropylcellulose) (HPC)
[15] = dose: 100.0 mg/kg/injection, schedule: Q04DX002 (ip), vehicle: Klucel (hydroxypropylcellulose) (HPC)
[16] = dose: 200.0 mg/kg/injection, schedule: Q04DX002 (ip), vehicle: Klucel (hydroxypropylcellulose) (HPC)
[17] = dose: 400.0 mg/kg/injection, schedule: Q04DX002 (ip), vehicle: Klucel (hydroxypropylcellulose) (HPC)

Measured: T/C

CC1(C)N=C(N)N=C(N)N1c1ccc(CCCC(=O)Nc2ccc(S(=O)(=O)F)cc2)cc1
inactive: dose: 0.8 mg/kg/injection, schedule: Q01DX009 (ip), vehicle: saline 97 % of control | dose: 4.0 mg/kg/injection, schedule: Q01DX009 (ip), vehicle: saline 98 % of control | dose: 20.0 mg/kg/injection, schedule: Q01DX009 (ip), vehicle: saline 104 % of control | dose: 100.0 mg/kg/injection, schedule: Q01DX009 (ip), vehicle: saline 114 % of control | dose: 500.0 mg/kg/injection, schedule: Q01DX009 (ip), vehicle: saline 123 % of control

C=C1C(=O)N(C)CCC1(O)C(CC)C(=O)OC (configuration not stated)
inactive: dose: 6.25 mg/kg/injection, schedule: Q01DX001 (ip), vehicle: saline 98 % of control | dose: 12.5 mg/kg/injection, schedule: Q01DX001 (ip), vehicle: saline 98 % of control | [1] 98 % of control | [2] 98 % of control

[Cl][Sn]([c]1ccccc1)([c]1ccccc1)[c]1ccccc1
inactive: dose: 2.5 mg/kg/injection, schedule: Q01DX009 (ip), vehicle: Klucel (hydroxypropylcellulose) (HPC) 89 % of control | dose: 5.0 mg/kg/injection, schedule: Q01DX001 (ip), vehicle: saline 95 % of control | dose: 5.0 mg/kg/injection, schedule: Q01DX009 (ip), vehicle: Klucel (hydroxypropylcellulose) (HPC) 97 % of control and 106 % of control | dose: 5.0 mg/kg/injection, schedule: Q04DX003 (ip), vehicle: Klucel (hydroxypropylcellulose) (HPC) 95 % of control | dose: 10.0 mg/kg/injection, schedule: Q01DX001 (ip), vehicle: saline 101 % of control | dose: 10.0 mg/kg/injection, schedule: Q04DX003 (ip), vehicle: Klucel (hydroxypropylcellulose) (HPC) 90 % of control | dose: 20.0 mg/kg/injection, schedule: Q01DX001 (ip), vehicle: saline 95 % of control | dose: 40.0 mg/kg/injection, schedule: Q01DX001 (ip), vehicle: saline 91 % of control

CCOC(=O)CC1C(C)C(C)NC(C)C1C (configuration not stated)
inactive: [3] 94 % of control | dose: 150.0 mg/kg/injection, schedule: Q01DX001 (ip), vehicle: saline 103 % of control

NNc1nnc(-c2ccccc2)c2ccccc12
inactive: dose: 15.0 mg/kg/injection, schedule: Q01DX001 (ip), vehicle: carboxymethylcellulose (CMC) 95 % of control | dose: 30.0 mg/kg/injection, schedule: Q01DX001 (ip), vehicle: carboxymethylcellulose (CMC) 101 % of control | dose: 60.0 mg/kg/injection, schedule: Q01DX001 (ip), vehicle: carboxymethylcellulose (CMC) 100 % of control

Cc1cc2c(cc1C)/C(=N\O)CCCC2
inactive: [4] 110 % of control | [5] 92 % of control | [6] 94 % of control

C=C(C)C1C2OC(=O)C1C1(O)CC3OC34C(=O)OC2C14C (configuration not stated)
inactive: dose: 1.25 mg/kg/injection, schedule: Q01DX001 (ip), vehicle: other 109 % of control | dose: 2.5 mg/kg/injection, schedule: Q01DX001 (ip), vehicle: other 101 % of control

CC1=CC(C)(C)NC(=S)N1c1cccc([N+](=O)[O-])c1
inactive: dose: 224.0 mg/kg/injection, schedule: Q01DX Z (ip), vehicle: methylcellulose (MC) 88 % of control | dose: 334.0 mg/kg/injection, schedule: Q01DX Z (ip), vehicle: methylcellulose (MC) 89 % of control | dose: 500.0 mg/kg/injection, schedule: Q01DX Z (ip), vehicle: methylcellulose (MC) 94 % of control

CC(=O)OC1C(OC(C)=O)C2C(C)(C)CCCC2(C)C2Cc3occc3C(C)C12 (configuration not stated)
inactive: dose: 100.0 mg/kg/injection, schedule: Q04DX003 (ip), vehicle: saline 120 % of control | dose: 200.0 mg/kg/injection, schedule: Q04DX003 (ip), vehicle: saline 117 % of control | dose: 400.0 mg/kg/injection, schedule: Q04DX003 (ip), vehicle: saline 103 % of control

COc1ccc(OC)c(NC(=O)c2ccccc2Cl)c1
inactive: dose: 100.0 mg/kg/injection, schedule: Q01DX009 (ip), vehicle: saline with Tween-80 93 % of control and 102 % of control | [7] 103 % of control and 111 % of control | [4] 95 % of control | dose: 200.0 mg/kg/injection, schedule: Q01DX009 (ip), vehicle: saline with Tween-80 94 % of control and 101 % of control | [8] 93 % of control and 100 % of control | [5] 94 % of control | dose: 400.0 mg/kg/injection, schedule: Q01DX009 (ip), vehicle: saline with Tween-80 96 % of control | [9] 103 % of control and 104 % of control | [6] 97 % of control

S=P(c1ccccc1)(c1cccc2ccccc12)c1cccc2ccccc12
inactive: [10] 93 % of control | [11] 96 % of control | [12] 93 % of control

COc1ccc(NC(=O)Oc2ccccn2)cc1
inactive: dose: 25.0 mg/kg/injection, schedule: Q01DX009 (ip), vehicle: carboxymethylcellulose (CMC) 92 % of control and 100 % of control | dose: 50.0 mg/kg/injection, schedule: Q01DX009 (ip), vehicle: carboxymethylcellulose (CMC) 93 % of control and 103 % of control | dose: 100.0 mg/kg/injection, schedule: Q01DX001 (ip), vehicle: carboxymethylcellulose (CMC) 97 % of control | dose: 100.0 mg/kg/injection, schedule: Q04DX003 (ip), vehicle: carboxymethylcellulose (CMC) 93 % of control and 106 % of control | dose: 200.0 mg/kg/injection, schedule: Q01DX001 (ip), vehicle: carboxymethylcellulose (CMC) 101 % of control | dose: 200.0 mg/kg/injection, schedule: Q04DX003 (ip), vehicle: carboxymethylcellulose (CMC) 97 % of control and 113 % of control | dose: 400.0 mg/kg/injection, schedule: Q01DX001 (ip), vehicle: carboxymethylcellulose (CMC) 113 % of control | dose: 400.0 mg/kg/injection, schedule: Q04DX003 (ip), vehicle: carboxymethylcellulose (CMC) 97 % of control and 108 % of control

ClC1=C(Cl)C2(Cl)C(C1Cl)C1(Cl)C(Cl)=C(Cl)C2(Cl)C1Cl (configuration not stated)
inactive: [13] 97 % of control | dose: 100.0 mg/kg/injection, schedule: Q04DX003 (ip), vehicle: Klucel (hydroxypropylcellulose) (HPC) 102 % of control | [14] 97 % of control | dose: 200.0 mg/kg/injection, schedule: Q04DX003 (ip), vehicle: Klucel (hydroxypropylcellulose) (HPC) 104 % of control | dose: 400.0 mg/kg/injection, schedule: Q01DX009 (ip), vehicle: Klucel (hydroxypropylcellulose) (HPC) 97 % of control | dose: 400.0 mg/kg/injection, schedule: Q04DX003 (ip), vehicle: Klucel (hydroxypropylcellulose) (HPC) 93 % of control

CCC[CH2][Pb]([CH2]CCC)([CH2]CCC)[CH2]CCC
inactive: [7] 107 % of control | [8] 105 % of control | [9] 102 % of control

O=C1C=C2CCCC(=O)C2(Cc2ccccc2)CC1 (configuration not stated)
inactive: dose: 100.0 mg/kg/injection, schedule: Q01DX009 (ip), vehicle: alcohol 103 % of control | dose: 200.0 mg/kg/injection, schedule: Q01DX009 (ip), vehicle: alcohol 92 % of control | dose: 400.0 mg/kg/injection, schedule: Q01DX009 (ip), vehicle: alcohol 96 % of control

O=C(c1ccccc1)c1cccc(C(Br)Br)c1
inactive: [4] 96 % of control | [5] 95 % of control | [6] 95 % of control

COC1C(C(=O)O)=CC=CC1OC(C)=O (configuration not stated)
inactive: [10] 90 % of control | [11] 102 % of control | [12] 104 % of control

N#CC1(C#N)OC12CCS(=O)(=O)c1ccccc12 (configuration not stated)
inactive: [10] 88 % of control | [11] 95 % of control | [12] 101 % of control

O=[N+]([O-])/C=C/c1ccc(Br)cc1
inactive: [3] 95 % of control

C/C=C(\C#N)c1ccc(-c2ccccc2)cc1
inactive: dose: 100.0 mg/kg/injection, schedule: Q01DX001 (ip), vehicle: saline with Tween-80 94 % of control | dose: 200.0 mg/kg/injection, schedule: Q01DX001 (ip), vehicle: saline with Tween-80 91 % of control | dose: 400.0 mg/kg/injection, schedule: Q01DX001 (ip), vehicle: saline with Tween-80 98 % of control

NNCc1cc(Cl)c2cccnc2c1O
inactive: [15] 105 % of control | [16] 105 % of control | [17] 99 % of control

CC(=O)OI(OC(C)=O)c1ccc(-c2ccccc2)cc1
inactive: [13] 91 % of control | [14] 102 % of control

C=C(C)COC(OCC(=C)C)C(C)C
inactive: [13] 96 % of control | [15] 102 % of control | [14] 89 % of control | [16] 109 % of control | [17] 112 % of control

CC1(C)C[N+](C)(Cc2ccccc2)N=C1[O-] (configuration not stated)
inactive: [1] 94 % of control | [2] 94 % of control | [10] 94 % of control | [11] 102 % of control
